With `Cc1cc(-c2ccc(C(F)(F)F)cc2)cn2c(-c3nc(-c4ccc(S(N)(=O)=O)s4)no3)cnc12` [Example 45, 5-{5-[8-Methyl-6-(4-trifluoromethyl-phenyl)-imidazo[1,2-a]pyridin-3-yl]-[1,2,4]oxadiazol-3-yl}-thiophene-2-sulfonic acid amide], the melting point (usually the temperature, or range, at which the solid turns liquid) was determined as 285 °C.

The compound `NS(=O)(=O)c1cccc(-c2noc(-c3cnn4ccc(-c5ccc(Cl)cc5)nc34)n2)c1` [Example 49, 3-{5-[5-(4-Chloro-phenyl)-pyrazolo[1,5-a]pyrimidin-3-yl]-[1,2,4]oxadiazol-3-yl}-benzenesulfonamide] showed a melting point of 223 °C.

Take `NS(=O)(=O)c1ccc(-c2noc(-c3cnc4ccc(-c5ccc(C(F)(F)F)cc5)cn34)n2)cc1` [Example 50, 4-{5-[6-(4-Trifluoromethyl-phenyl)-imidazo[1,2-a]pyridin-3-yl]-[1,2,4]oxadiazol-3-yl}-benzenesulfonamide]: the melting point came to 288 °C.

Compound `NS(=O)(=O)c1cccc(-c2noc(-c3cnc4ccc(-c5ccc(C(F)(F)F)cc5)cn34)n2)c1` [Example 51, 3-{5-[6-(4-Trifluoromethyl-phenyl)-imidazo[1,2-a]pyridin-3-yl]-[1,2,4]oxadiazol-3-yl}-benzenesulfonamide] yielded a melting point of 288 °C.

`NS(=O)(=O)c1ccc(-c2noc(-c3cnn4ccc(-c5ccc(C(F)(F)F)cc5)nc34)n2)s1` [Example 52, 5-{5-[5-(4-Trifluoromethyl-phenyl)-pyrazolo[1,5-a]pyrimidin-3-yl]-[1,2,4]oxadiazol-3-yl}-thiophene-2-sulfonic acid amide]: the melting point worked out at 251 °C.

For the compound `NS(=O)(=O)c1cccc(-c2noc(-c3cnn4ccc(-c5ccc(C(F)(F)F)cc5)nc34)n2)c1` [Example 53, 3-{5-[5-(4-Trifluoromethyl-phenyl)-pyrazolo[1,5-a]pyrimidin-3-yl]-[1,2,4]oxadiazol-3-yl}-benzenesulfonamide], the melting point turned out to be 270 °C.

As for `NS(=O)(=O)c1ccc(-c2noc(-c3cnc4ccc(-c5ccc(C(F)(F)F)cc5)cn34)n2)s1` [Example 54, 5-{5-[6-(4-Trifluoromethyl-phenyl)-imidazo[1,2-a]pyridin-3-yl]-[1,2,4]oxadiazol-3-yl}-thiophene-2-sulfonic acid amide], the melting point is 280 °C.

Take `NS(=O)(=O)c1ccc(-c2noc(-c3cnc4ccc(-c5ccc(Cl)cc5)cn34)n2)s1` [Example 55, 5-{5-[6-(4-Chloro-phenyl)-imidazo[1,2-a]pyridin-3-yl]-[1,2,4]oxadiazol-3-yl}-thiophene-2-sulfonic acid amide]: the melting point worked out at 263 °C.

With `Nc1ccc(-c2noc(-c3cnc4ccc(-c5ccc(C(F)(F)F)cc5)cn34)n2)cn1` [Example 56, 5-{5-[6-(4-Trifluoromethyl-phenyl)-imidazo[1,2-a]pyridin-3-yl]-[1,2,4]oxadiazol-3-yl}-pyridin-2-ylamine], the melting point is 258 °C.

`Nc1ccc(-c2noc(-c3cnc4ccc(-c5ccc(Cl)cc5)cn34)n2)cn1` [Example 57, 5-{5-[6-(4-Chloro-phenyl)-imidazo[1,2-a]pyridin-3-yl]-[1,2,4]oxadiazol-3-yl}-pyridin-2-ylamine] returned a melting point of 273 °C.

Consider `Nc1cc(-c2noc(-c3cnn4c(C(F)(F)F)cc(-c5ccc(C(F)(F)F)cc5)nc34)n2)ccn1` [Example 58, 4-{5-[7-Trifluoromethyl-5-(4-trifluoromethyl-phenyl)-pyrazolo[1,5-a]pyrimidin-3-yl]-[1,2,4]oxadiazol-3-yl}-pyridin-2-ylamine], for which the melting point is 277 °C.

For the compound `Nc1cc(-c2noc(-c3cnn4ccc(-c5ccc(C(F)(F)F)cc5)nc34)n2)ccn1` [Example 59, 4-{5-[5-(4-Trifluoromethyl-phenyl)-pyrazolo[1,5-a]pyrimidin-3-yl]-[1,2,4]oxadiazol-3-yl}-pyridin-2-ylamine], the melting point came out at 250 °C.

Consider `Cc1cc(-c2ccc(C(F)(F)F)cc2)cn2c(-c3nc(-c4ccnc(N)c4)no3)cnc12` [Example 60, 4-{5-[8-Methyl-6-(4-trifluoromethyl-phenyl)-imidazo[1,2-a]pyridin-3-yl]-[1,2,4]oxadiazol-3-yl}-pyridin-2-ylamine], for which the melting point worked out at 264 °C.

As to `Nc1cc(-c2noc(-c3cnc4ccc(-c5ccc(C(F)(F)F)cc5)cn34)n2)ccn1` [Example 61, 4-{5-[6-(4-Trifluoromethyl-phenyl)-imidazo[1,2-a]pyridin-3-yl]-[1,2,4]oxadiazol-3-yl}-pyridin-2-ylamine], the melting point was 280 °C.

For `Nc1ccc(-c2noc(-c3cnn4c(C(F)(F)F)cc(-c5ccc(Cl)cc5)nc34)n2)cn1` [Example 62, 5-{5-[5-(4-Chloro-phenyl)-7-trifluoromethyl-pyrazolo[1,5-a]pyrimidin-3-yl]-[1,2,4]oxadiazol-3-yl}-pyridin-2-ylamine], the melting point stood at 253 °C.

`Nc1ccc(-c2noc(-c3cnn4c(C(F)F)cc(-c5ccc(Cl)cc5)nc34)n2)cn1` [Example 63, 5-{5-[5-(4-Chloro-phenyl)-7-difluoromethyl-pyrazolo[1,5-a]pyrimidin-3-yl]-[1,2,4]oxadiazol-3-yl}-pyridin-2-ylamine]: the melting point is 254 °C.

Take `Cc1cc(-c2cc(C(F)(F)F)n3ncc(-c4nc(-c5ccc(N)nc5)no4)c3n2)ccc1Cl` [Example 64, 5-{5-[5-(4-Chloro-3-methyl-phenyl)-7-trifluoromethyl-pyrazolo[1,5-a]pyrimidin-3-yl]-[1,2,4]oxadiazol-3-yl}-pyridin-2-ylamine]: the melting point came out at 262 °C.

Regarding `Cc1cc(-c2cc(C(F)F)n3ncc(-c4nc(-c5ccc(N)nc5)no4)c3n2)ccc1C(F)(F)F` [Example 65, 5-{5-[7-Difluoromethyl-5-(3-methyl-4-trifluoromethyl-phenyl)-pyrazolo[1,5-a]pyrimidin-3-yl]-[1,2,4]oxadiazol-3-yl}-pyridin-2-ylamine], the melting point is 231 °C.

Compound `Nc1ccc(-c2noc(-c3cnn4c(C(F)F)cc(-c5ccc(Cl)c(Cl)c5)nc34)n2)cn1` [Example 66, 5-{5-[5-(3,4-Dichloro-phenyl)-7-difluoromethyl-pyrazolo[1,5-a]pyrimidin-3-yl]-[1,2,4]oxadiazol-3-yl}-pyridin-2-ylamine] had a melting point of 279 °C.

For `Nc1ccc(-c2noc(-c3cnn4c(C(F)(F)F)cc(-c5ccc(Cl)c(Cl)c5)nc34)n2)cn1` [Example 67, 5-{5-[5-(3,4-Dichloro-phenyl)-7-trifluoromethyl-pyrazolo[1,5-a]pyrimidin-3-yl]-[1,2,4]oxadiazol-3-yl}-pyridin-2-ylamine], the melting point was 289 °C.

Turning to `CCOc1cc(-c2cc(C(F)F)n3ncc(-c4nc(-c5ccc(N)nc5)no4)c3n2)ccc1C(F)(F)F` [Example 68, 5-{5-[7-Difluoromethyl-5-(3-ethoxy-4-trifluoromethyl-phenyl)-pyrazolo[1,5-a]pyrimidin-3-yl]-[1,2,4]oxadiazol-3-yl}-pyridin-2-ylamine], the melting point was determined as 250 °C.

`CCOc1cc(-c2cc(C(F)(F)F)n3ncc(-c4nc(-c5ccc(N)nc5)no4)c3n2)ccc1C(F)(F)F` [Example 69, 5-{5-[5-(3-Ethoxy-4-trifluoromethyl-phenyl)-7-trifluoromethyl-pyrazolo[1,5-a]pyrimidin-3-yl]-[1,2,4]oxadiazol-3-yl}-pyridin-2-ylamine] yielded a melting point of 263 °C.
